In ChEMBL document CHEMBL4000146, “Synthesis, antiplasmodial activity and mechanistic studies of pyrimidine-5-carbonitrile and quinoline hybrids” (Eur J Med Chem, 2015):
Active and inactive are the calls of the source. No cut-off for these calls is given here.

Legend:
[1] = system: Plasmodium falciparum; test: Resistance index, ratio of IC50 for chloroquine-resistant asexual intraerythrocytic stage of Plasmodium falciparum Dd2 to IC50 for chloroquine-sensitive asexual intraerythrocytic stage of Plasmodium falciparum NF54; assay type: functional
[2] = system: L1210; test: Cytotoxicity against mouse L1210 cells assessed as inhibition of cell proliferation by Coulter counter analysis; assay type: cell-based
[3] = system: CCRF-CEM; test: Cytotoxicity against human CEM cells assessed as inhibition of cell proliferation by Coulter counter analysis; assay type: cell-based
[4] = system: HeLa; test: Cytotoxicity against human HeLa cells assessed as inhibition of cell proliferation by Coulter counter analysis; assay type: cell-based
[5] = Selectivity index, ratio of IC50 for human HeLa cells to IC50 for chloroquine-sensitive asexual intraerythrocytic stage of Plasmodium falciparum NF54; assay type: toxicity, cell-based; settings: read-out: Ratio IC50
[6] = Selectivity index, ratio of IC50 for human HeLa cells to IC50 for chloroquine-resistant asexual intraerythrocytic stage of Plasmodium falciparum Dd2; assay type: toxicity, cell-based; settings: read-out: Ratio IC50
[7] = Cytotoxicity against human HEL cells assessed as alteration of normal cell morphology by microscopic analysis; assay type: cell-based
[8] = Cytotoxicity against human HEL cells assessed as inhibition of cell viability by colorimetric formazan-based MTS assay
[9] = Cytotoxicity against human HeLa cells assessed as alteration of normal cell morphology by microscopic analysis; assay type: cell-based
[10] = Cytotoxicity against african green monkey Vero cells assessed as alteration of normal cell morphology by microscopic analysis; assay type: cell-based; settings: chlorocebus sabaeus
[11] = system: Human alphaherpesvirus 1; assay type: functional, cell-based; settings: Human alphaherpesvirus 1, KOS, HEL
[12] = system: Human alphaherpesvirus 2; assay type: functional, cell-based; settings: Human alphaherpesvirus 2, G, HEL
[13] = system: Human alphaherpesvirus 1; assay type: functional, cell-based; settings: Human alphaherpesvirus 1, KOS, HEL; remark: listed apart in the source
[14] = system: unidentified adenovirus; assay type: functional, cell-based; settings: HEL
[15] = system: Coxsackievirus; assay type: functional, cell-based; settings: B4, HeLa
[16] = system: Human orthopneumovirus; assay type: functional, cell-based; settings: human respiratory syncytial virus, HeLa
[17] = system: Human respirovirus 3; assay type: functional; settings: Human respirovirus 3, Vero
[18] = system: Mammalian orthoreovirus 1; assay type: functional; settings: Mammalian orthoreovirus 1, Vero
[19] = system: Sindbis virus; assay type: functional; settings: Vero
[20] = system: Coxsackievirus; assay type: functional; settings: B4, Vero
[21] = system: Punta Toro virus; assay type: functional; settings: Vero
[22] = system: Human betaherpesvirus 5; assay type: functional, cell-based; settings: Human betaherpesvirus 5, AD169, HEL
[23] = system: Human betaherpesvirus 5; assay type: functional, cell-based; settings: Human betaherpesvirus 5, Davis, HEL
[24] = system: Human alphaherpesvirus 3; assay type: functional, cell-based; settings: Human alphaherpesvirus 3, strain Oka vaccine, HEL
[25] = system: Human alphaherpesvirus 3; assay type: functional, cell-based; settings: Human alphaherpesvirus 3, 07-1, HEL
[26] = Cytotoxicity against MDCK cells assessed as alteration of normal cell morphology by microscopic analysis; assay type: cell-based, Canis lupus familiaris; settings: dog
[27] = Cytotoxicity against MDCK cells assessed as inhibition of cell viability by colorimetric formazan-based MTS assay; design: species or system Canis lupus familiaris; settings: dog
[28] = system: Heme; test: Binding affinity to monomeric heme (unknown origin) assessed as 1:1 stoichiometry for monomeric heme-compound complex at pH 5.6 by Job's plot analysis
[29] = system: Heme; test: Binding affinity to monomeric heme (unknown origin) assessed as 1:1 stoichiometry for monomeric heme-compound complex at pH 7.5 by Job's plot analysis
[30] = system: mu-oxodimeric heme; test: Binding affinity to mu-oxo-heme (unknown origin) assessed as 1:1 stoichiometry for mu-oxo-heme-compound complex at pH 5.8 by Job's plot analysis
[31] = system: Heme; test: Binding affinity to monomeric heme (unknown origin) assessed as 1:1 ratio of monomeric heme-compound complex at 0.24 mM by mass spectra analysis
[32] = system: Plasmodium falciparum; test: Potency index, ratio of chloroquine IC50 to test compound IC50 for chloroquine-resistant asexual intraerythrocytic stage of Plasmodium falciparum Dd2; assay type: functional
[33] = system: Plasmodium falciparum; test: microbe, parasite or virus in culture; settings: NF54
[34] = system: Plasmodium falciparum; test: microbe, parasite or virus in culture; settings: Dd2
[35] = system: Vaccinia virus; test: microbe, parasite or virus in culture; settings: Orthopoxvirus vaccinia, HEL
[36] = system: Vesicular stomatitis virus; test: microbe, parasite or virus in culture; settings: HEL
[37] = system: Vesicular stomatitis virus; test: microbe, parasite or virus in culture; settings: HeLa
[38] = system: Influenza A virus; test: microbe, parasite or virus in culture; settings: H1N1, MDCK
[39] = system: Influenza A virus; test: microbe, parasite or virus in culture; settings: H3N2, MDCK
[40] = system: Influenza B virus; test: microbe, parasite or virus in culture; settings: MDCK
[41] = system: Heme; test: Binding affinity to monomeric heme (unknown origin) assessed as monomeric heme-compound complex formation up to 37.3 uM by UV-visible absorption spectrophotometry

SMILES	Ratio IC50 [1]	IC50 [2] [µM]	IC50 [3] [µM]	IC50 [4] [µM]	selectivity ratio [5]	selectivity ratio [6]	MCC [7] [µM]	CC50 [8] [µM]	MCC [9] [µM]	MCC [10] [µM]	EC50 [11] [µM]	EC50 [12] [µM]	EC50 [13] [µM]	EC50 [14] [µM]	EC50 [15] [µM]	EC50 [16] [µM]	EC50 [17] [µM]	EC50 [18] [µM]	EC50 [19] [µM]	EC50 [20] [µM]	also measured
CSc1nc(NCCCCNc2ccnc3cc(Cl)ccc23)c(C#N)c(-c2cccc([N+](=O)[O-])c2)n1	0.81	2.1	2.1	1.1	16	19.7	≥ 4	4.2	100	20	> 4	> 4	> 4	> 4	> 20	> 20	> 4	> 4	> 4	> 4	EC50 [21]: > 4 µM; EC50 [22]: > 0.8 µM; EC50 [23]: > 0.8 µM; EC50 [24]: > 0.8 µM; EC50 [25]: > 0.8 µM; MCC [26]: 20 µM; CC50 [27]: 9.6 µM; Activity [28]: Active; Activity [29]: Active; Activity [30]: Active; Activity [31]: Active; Ratio IC50 [32]: 4; IC50 [33]: 0.0685 µM; IC50 [34]: 0.0558 µM; EC50 [35]: > 4 µM; EC50 [36]: > 4 µM; EC50 [37]: > 20 µM; EC50 [38]: > 4 µM; EC50 [39]: > 4 µM; EC50 [40]: > 4 µM
CSc1nc(-c2ccccc2)c(C#N)c(N2CCN(c3ccnc4cc(Cl)ccc34)CC2)n1	1.6	> 250	> 250	> 250	> 1.9	> 1.1	≥ 100	> 100	> 100	> 100	> 100	> 100	> 100	> 100	> 100	> 100	> 100	> 100	> 100	> 100	EC50 [21]: > 100 µM; EC50 [22]: > 20 µM; EC50 [23]: > 100 µM; EC50 [24]: > 100 µM; EC50 [25]: > 100 µM; MCC [26]: > 100 µM; CC50 [27]: > 100 µM; Activity [41]: inactive; IC50 [33]: 132 µM; IC50 [34]: 212 µM; EC50 [35]: > 100 µM; EC50 [36]: > 100 µM; EC50 [37]: > 100 µM; EC50 [38]: > 100 µM; EC50 [39]: > 100 µM; EC50 [40]: > 100 µM
CSc1nc(NCCCCNc2ccnc3cc(Cl)ccc23)c(C#N)c(-c2ccc([N+](=O)[O-])cc2)n1	12.13	0.96	0.76	0.89	20.3	1.6	4	1.7	4	4	> 0.8	> 0.8	> 0.8	> 0.8	> 0.8	> 0.8	> 0.8	> 0.8	> 0.8	> 0.8	EC50 [21]: > 0.8 µM; EC50 [22]: > 0.8 µM; EC50 [23]: > 0.8 µM; EC50 [24]: > 0.8 µM; EC50 [25]: > 0.8 µM; MCC [26]: 4 µM; CC50 [27]: 2 µM; IC50 [33]: 0.0438 µM; IC50 [34]: 0.532 µM; EC50 [35]: > 0.8 µM; EC50 [36]: > 0.8 µM; EC50 [37]: > 0.8 µM; EC50 [38]: > 0.8 µM; EC50 [39]: > 0.8 µM; EC50 [40]: > 0.8 µM
COc1ccc(-c2nc(SC)nc(NCCCCNc3ccnc4cc(Cl)ccc34)c2C#N)cc1	13.92	3.2	2.7	3.4	30.9	2.2	4 to 20	7.9	20	20	> 0.8	> 0.8	> 0.8	> 4	> 4	> 4	> 4	> 4	> 4	> 4	EC50 [21]: > 4 µM; EC50 [22]: > 4 µM; EC50 [23]: > 4 µM; EC50 [24]: > 4 µM; EC50 [25]: > 4 µM; MCC [26]: 20 µM; CC50 [27]: 10 µM; IC50 [33]: 0.11 µM; IC50 [34]: 1.53 µM; EC50 [35]: > 0.8 µM; EC50 [36]: > 0.8 µM; EC50 [37]: > 4 µM; EC50 [38]: > 4 µM; EC50 [39]: > 4 µM; EC50 [40]: > 4 µM
COc1cc(-c2nc(SC)nc(NCCCCNc3ccnc4cc(Cl)ccc34)c2C#N)cc(OC)c1OC	0.98	3.8	3.6	3.4	37.4	37.9	4 to 20	1.5	20	4	> 0.8	> 0.8	> 0.8	> 0.8	> 4	> 4	> 0.8	> 0.8	> 0.8	> 0.8	EC50 [21]: > 0.8 µM; EC50 [22]: > 4 µM; EC50 [23]: > 4 µM; EC50 [24]: > 4 µM; EC50 [25]: > 4 µM; MCC [26]: 4 µM; CC50 [27]: 2 µM; Ratio IC50 [32]: 3; IC50 [33]: 0.0909 µM; IC50 [34]: 0.0895 µM; EC50 [35]: > 0.8 µM; EC50 [36]: > 0.8 µM; EC50 [37]: > 4 µM; EC50 [38]: > 0.8 µM; EC50 [39]: > 0.8 µM; EC50 [40]: > 0.8 µM
